The source of these data is patent US8044082B2, “N-phenylacetamide inhibitors of the enzyme SOAT-1 and pharmaceutical/cosmetic compositions comprised thereof” (Galderma Research & Development, priority 2007, dated 2011).

The target in one series is T1, enzyme ACAT-1 (Homo sapiens, UniProt P35610).
T1 sequence (P35610 1-550): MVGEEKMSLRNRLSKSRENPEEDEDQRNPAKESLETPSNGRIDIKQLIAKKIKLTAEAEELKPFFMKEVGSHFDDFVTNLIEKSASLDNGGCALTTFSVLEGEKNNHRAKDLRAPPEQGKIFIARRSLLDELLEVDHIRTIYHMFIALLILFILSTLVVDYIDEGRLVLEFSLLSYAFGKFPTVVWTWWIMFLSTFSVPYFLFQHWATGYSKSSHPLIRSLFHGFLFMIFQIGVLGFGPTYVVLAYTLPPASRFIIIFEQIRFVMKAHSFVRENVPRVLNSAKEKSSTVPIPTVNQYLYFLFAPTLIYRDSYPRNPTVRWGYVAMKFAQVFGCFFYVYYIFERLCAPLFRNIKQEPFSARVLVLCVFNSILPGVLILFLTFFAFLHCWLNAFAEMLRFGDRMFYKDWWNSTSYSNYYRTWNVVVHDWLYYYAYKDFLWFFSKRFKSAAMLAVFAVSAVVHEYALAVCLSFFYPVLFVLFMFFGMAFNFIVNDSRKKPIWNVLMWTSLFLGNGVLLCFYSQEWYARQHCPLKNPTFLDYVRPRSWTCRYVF
Briefly: ACAT-1 (SOAT-1) inhibition test in HepG2 cells with NBD-cholesterol fluorescence. In kind it is cell-based. The settings on record: NBD-cholesterol 1 μg/ml, incubation 6 h at 37° C., fluorescence excitation 490 nm / emission 540 nm. The method, then: The compounds (I) according to the invention, as well as their pharmaceutically acceptable salts, solvates and/or hydrates, have inhibitory properties on the enzyme SOAT-1. This inhibitory activity on the enzyme SOAT-1 is measured according to a primary enzymatic test HepG2, as described in Example 64.
The compounds of formula (I) according to the invention have been subjected to a test allowing their inhibitory action with respect to the enzyme ACAT-1 to be evaluated inspired by the following publication: “Identification of ACAT1- and ACAT2-specific inhibitors using a novel, cell-based fluorescence assay: individual ACAT uniqueness”, J. Lipid Res. (2004) vol. 45, pages 378-386.
The principle of this test is based on the employment of NBD-cholesterol, an analogue of cholesterol whose fluorescence depends on its environment. When this is present in a polar environment, it is weakly fluorescent although in a nonpolar environment it is strongly fluorescent. Free NBD-cholesterol locates itself in the cell membranes and is weakly fluorescent in this polar environment. When the NBD-cholesterol is esterified by ACAT, the ester of NBD-cholesterol locates itself in the nonpolar lipid droplets and is in that case strongly fluorescent.
The method below is applied: The HepG2 cells are incubated in the presence of NBD-cholesterol (1 μg/ml) and of the compound of formula (I) to be tested in black 96-well plates with a transparent base at a rate of 30 000 cells per well. After incubation for 6 h at 37° C., under 5% CO2, the medium is eliminated by turning over and the cells are washed with 2 times 100 μl of PBS. After addition of 50 μl of lysis buffer (NaPO4 10 mM, Igepal 1%), the plates are stirred for 5 min and read in fluorescence (excitation 490 nm, emission 540 nm) on a FUSION apparatus (Perkin-Elmer).

Structures are written as SMILES.

The IC50 is the midpoint of a concentration-inhibition curve. On to `CC(C)c1cccc(C(C)C)c1NC(=O)CN1C(=O)N(c2ccccc2)C2(CCCC2)C1=O` [compound (I.1), N-(2,6-Diisopropylphenyl)-2-(2,4-dioxo-1-phenyl-1,3-diazaspiro[4.4]non-3-yl)acetamide], for which, at enzyme ACAT-1, the IC50 amounted to 3.2 nM.
As a reminder, the melting point is the temperature of the solid-liquid transition. As for `CC(C)c1cccc(C(C)C)c1NC(=O)CN1C(=O)N(c2ccc(F)cc2)C2(CCCCC2)C1=O` [compound (I.7), N-(2,6-Diisopropylphenyl)-2-[1-(4-fluorophenyl)-2,4-dioxo-1,3-diazaspiro-[4.5]dec-3-yl]acetamide], the melting point was determined as 258 °C. On enzyme ACAT-1, half-maximal inhibition (IC50) required 0.8 nM.
On to `Cc1ccc(N2C(=O)N(CC(=O)Nc3c(C(C)C)cccc3C(C)C)C(=O)C23CCCCC3)cc1` [compound (I.10), N-(2,6-Diisopropylphenyl)-2-(2,4-dioxo-1-p-tolyl-1,3-diazaspiro[4.5]dec-3-yl)acetamide], for which the melting point was found to be 234 °C. Half-maximal inhibition against enzyme ACAT-1 (IC50) required 0.2 nM.
Compound `CC(C)c1cccc(C(C)C)c1NC(=O)CN1C(=O)N(C2CCCCC2)C2(CCCCC2)C1=O` [compound (I.14), 2-[1-Cyclohexyl-2,4-dioxo-1,3-diazaspiro[4.5]dec-3-yl)-N-(2,6-diisopropyl-phenyl)acetamide] yielded a melting point of 236 °C. At enzyme ACAT-1, this compound returned an IC50 of 4.8 nM.
Taken in the same sequence, the figures for `CC(C)c1cccc(C(C)C)c1NC(=O)CN1C(=O)N(CCc2ccccc2)C2(CCCCC2)C1=O` [compound (I.23), N-(2,6-Diisopropylphenyl)-2-(2,4-dioxo-1-phenethyl-1,3-diazaspiro[4.5]dec-3-yl)acetamide] were 225 °C and 5.6 nM.
The corresponding values for `CCCCN1C(=O)N(CC(=O)Nc2c(C(C)C)cccc2C(C)C)C(=O)C12CCCCC2` [compound (I.26), 2-(1-Butyl-2,4-dioxo-1,3-diazaspiro[4.5]dec-3-yl)-N-(2,6-diisopropylphenyl)acetamide] are 241 °C and 2.5 nM.
`CCC1(CC)C(=O)N(CC(=O)Nc2c(C(C)C)cccc2C(C)C)C(=O)N1c1ccc(C)cc1` [compound (I.39), 2-(4,4-Diethyl-2,5-dioxo-3-p-tolylimidazolidin-1-yl)-N-(2,6-diisopropylphenyl)acetamide] yielded a melting point of 174 °C. At enzyme ACAT-1, this compound gave an IC50 of 0.7 nM.
As for `CCCCCCCCCN1C(=O)N(CC(=O)Nc2c(C(C)C)cccc2C(C)C)C(=O)C12CCCCC2` [compound (I.43), N-(2,6-Diisopropylphenyl)-2-(1-nonyl-2,4-dioxo-1,3-diazaspiro[4.5]dec-3-yl)acetamide], the melting point was found to be 183 °C.
`CCCCCCCCN1C(=O)N(CC(=O)Nc2c(C(C)C)cccc2C(C)C)C(=O)C12CCCCC2` [compound (I.44), N-(2,6-Diisopropylphenyl)-2-(1-octyl-2,4-dioxo-1,3-diazaspiro[4.5]dec-3-yl)acetamide] showed a melting point of 202 °C.
On the same count and under the same terms, then `Cc1ccc(N2C(=O)N(CC(=O)Nc3c(C)cc(C)cc3C)C(=O)C23CCCCC3)cc1` [compound (I.45), 2-(2,4-Dioxo-1-p-tolyl-1,3-diazaspiro[4.5]dec-3-yl)-N-(2,4,6-trimethylphenyl)acetamide], with 266 °C.
In turn, `Cc1ccc(N2C(=O)N(CC(=O)Nc3c(C)cccc3Cl)C(=O)C23CCCCC3)cc1` [compound (I.46), N-(2-Chloro-6-methylphenyl)-2-(2,4-dioxo-1-p-tolyl-1,3-diazaspiro[4.5]dec-3-yl)acetamide] showed a melting point of 244 °C. At enzyme ACAT-1, this compound registered an IC50 of 5.1 nM.
As to `Cc1ccc(N2C(=O)N(CC(=O)Nc3c(C)cccc3C(C)C)C(=O)C23CCCCC3)cc1` [compound (I.47), 2-(2,4-Dioxo-1-p-tolyl-1,3-diazaspiro[4.5]dec-3-yl)-N-(2-isopropyl-6-methylphenyl)acetamide], the melting point stood at 195 °C.
Same read-out and setting: then `CCc1cccc(CC)c1NC(=O)CN1C(=O)N(c2ccc(C)cc2)C2(CCCCC2)C1=O` [compound (I.48), N-(2,6-Diethylphenyl)-2-(2,4-dioxo-1-p-tolyl-1,3-diazaspiro[4.5]dec-3-yl)-acetamide], with 214 °C; and `CCc1cc(C)cc(CC)c1NC(=O)CN1C(=O)N(c2ccc(C)cc2)C2(CCCCC2)C1=O` [compound (I.49), N-(2,6-Diethyl-4-methylphenyl)-2-(2,4-dioxo-1-p-tolyl-1,3-diazaspiro[4.5]dec-3-yl)acetamide], with 223 °C; and `Cc1ccc(N2C(=O)N(CC(=O)Nc3c(C)cc(C)cc3Cl)C(=O)C23CCCCC3)cc1` [compound (I.50), N-(2-Chloro-4,6-dimethylphenyl)-2-(2,4-dioxo-1-p-tolyl-1,3-diazaspiro[4.5]dec-3-yl)acetamide], with 248 °C.
The same measure, in the same setting: next, `CCc1cccc(CC)c1NC(=O)CN1C(=O)N(CCc2ccccc2)C2(CCCCC2)C1=O` [compound (I.51), N-(2,6-Diethylphenyl)-2-(2,4-dioxo-1-phenethyl-1,3-diazaspiro[4.5]dec-3-yl)acetamide]: 178 °C; `Cc1ccc(N2C(=O)N(CC(=O)Nc3c(C)cccc3C(C)(C)C)C(=O)C23CCCCC3)cc1` [compound (I.53), N-(2-tert-Butyl-6-methylphenyl)-2-(2,4-dioxo-1-p-tolyl-1,3-diazaspiro[4.5]dec-3-yl)acetamide]: 120 °C; `CCc1ccc(N2C(=O)N(CC(=O)Nc3c(CC)cccc3CC)C(=O)C23CCCCC3)cc1` [compound (I.54), N-(2,6-Diethylphenyl)-2-[1-(4-ethylphenyl)-2,4-dioxo-1,3-diazaspiro[4.5]dec-3-yl]acetamide]: 188 °C.
Turning to `CCCN1C(=O)N(CC(=O)Nc2c(CC)cccc2CC)C(=O)C12CCCCC2` [compound (I.55), N-(2,6-Diethylphenyl)-2-(2,4-dioxo-1-propyl-1,3-diazaspiro[4.5]dec-3-yl)acetamide], the melting point worked out at 222 °C.
On the same count and under the same terms, then `CCCCc1ccc(N2C(=O)N(CC(=O)Nc3c(CC)cccc3CC)C(=O)C23CCCCC3)cc1` [compound (I.56), 2-[1-(4-Butylphenyl)-2,4-dioxo-1,3-diazaspiro[4.5]dec-3-yl]-N-(2,6-diethyl-phenyl)acetamide], with 171 °C.
On the same count and under the same terms, then `CCc1ccc(N2C(=O)N(CC(=O)Nc3c(CC)cccc3CC)C(=O)C23CCCC3)cc1` [compound (I.57), N-(2,6-Diethylphenyl)-2-[1-(4-ethylphenyl)-2,4-dioxo-1,3-diazaspiro[4.4]non-3-yl]acetamide], with 191 °C; and `CCCCCCCN1C(=O)N(CC(=O)Nc2c(CC)cccc2CC)C(=O)C12CCCCC2` [compound (I.58), N-(2,6-Diethylphenyl)-2-(1-heptyl-2,4-dioxo-1,3-diazaspiro[4.5]dec-3-yl)acetamide], with 126 °C.
Still for that read-out and setting: then `CCc1cccc(CC)c1NC(=O)CN1C(=O)N(CC(C)C)C2(CCCCC2)C1=O` [compound (I.59), N-(2,6-Diethylphenyl)-2-(1-isobutyl-2,4-dioxo-1,3-diazaspiro[4.5]dec-3-yl)acetamide], with 209 °C; and `CC(C)c1cccc(C(C)C)c1NC(=O)CN1C(=O)N(c2ccc(OCc3ccccc3)cc2)C2(CCCCC2)C1=O` [compound (I.60), 2-[1-(4-Benzyloxyphenyl)-2,4-dioxo-1,3-diazaspiro[4.5]dec-3-yl]-N-(2,6-di-isopropylphenyl)acetamide], with 118 °C; and `CCc1cccc(CC)c1NC(=O)CN1C(=O)N(c2ccc(OCc3ccccc3)cc2)C2(CCCCC2)C1=O` [compound (I.62), 2-[1-(4-Benzyloxyphenyl)-2,4-dioxo-1,3-diazaspiro[4.5]dec-3-yl]-N-(2,6-di-ethylphenyl)acetamide], with 184 °C.
In turn, `CCc1cccc(CC)c1NC(=O)CN1C(=O)N(Cc2ccccc2)C2(CCCCC2)C1=O` [compound (I.63), 2-(1-Benzyl-2,4-dioxo-1,3-diazaspiro[4.5]dec-3-yl)-N-(2,6-diethylphenyl)-acetamide] registered a melting point of 179 °C.
